Source: patent US8623832B2, “Peptide compositions that bind TLR-4” (The Board of Regents of the University of Oklahoma, priority 2011, dated 2014)
Where no end group is shown, it is not given here.

How the values were obtained:
[1] = test system: SW480 cells; test: Cell cycle analysis of SW480 cells by flow cytometry; type: cell-based, human; details: SPA4 10, 50 and 100 μM; over 40 h
Experimental: Cell cycle analysis: The effect of SPA4 peptide on cell cycle progression was studied by flow-cytometry. About 500,000 cells were seeded per well into 6 well plate. The cells were challenged with LPS (100 ng/ml) for 4 hours. After the completion of 4 hours LPS-challenge period, SPA4 peptide (10, 50 and 100 μM) was added to the cells. Cells were further incubated for 20 and 40 hours. Vehicle-treated cells were also included. After 20 and 40 hours of total incubation period, both adherent and non-adherent cells were collected and centrifuged at 260×g for 5 minutes. The supernatant was discarded and cell pellet was washed with DPBS (Invitrogen-Gibco, NY). The cells were fixed in 70% ice-cold ethanol on ice for 1 hour and stained with a buffer containing 200 μg/ml DNase-free RNase A (Sigma, St Louis, Mo.), 0.1% v/v Triton-X 100 and 20 μg/ml propidium iodide (Molecular Probes, Carlsbad, Calif.). The cells were incubated at 4° C. for 30 minutes in the dark, before measuring cell fluorescence using Becton Dickson FACS Calibur flow cytometer. The single cells were selected by gating out the aggregates and the percent number of cell populations in different cell cycle phases were calculated by de-convoluting the results ModFIT software (Verity software house, Topsham, Me.).

[2] = Binding to LPS by Limulus Amoebocyte Lysate (LAL) assay; parameters: species or system Escherichia coli; details: 0-20 μM peptide; 0.01 ng/ml LPS; read at 6 and 12 minutes
Experimental: Binding of SPA4 peptide to LPS: The binding of SPA4 peptide to LPS was studied by LAL assay as per the method described by Giacometti et al. (2004). Briefly, 0-20 μM SPA4 peptide or polymyxin B (positive control) solutions were added to 0.01 ng/ml Escherichia coli O111:B4 LPS (supplied with the kit, Charles River Laboratories International, Inc., Wilmington, Mass.) in the wells of a 96 well plate and incubated at 37° C. for 40 minutes. Fifty μl of LAL substrate solution was then added to each well, and the plate was incubated for another 10 minutes. Finally, substrate-buffer solution was added, and optical density readings (OD) were obtained at 405 nm after 0, 6 and 12 minutes of addition of substrate. AOD values for SPA4 peptide or polymyxin B incubated with LPS (ΔODtreatment), LPS alone (ΔODLPS) and blank (ΔODBlank) were calculated by subtracting the OD values obtained at 6 or 12 minutes from those obtained at 0 minutes. Percent binding of SPA4 peptide and polymyxin B was calculated at 6 and 12 minutes of reaction using following formula: […]

[3] = test system: primary adult baboon lung DCs and fetal baboon lung DC-precursor cells; test: TNF-α secretion against E. coli by baboon lung DCs (ELISA); type: cell-based
Experimental: After confirming that the fluorescence is of phagocytosed bioparticles, comprehensive experiments were performed in presence and absence of effector molecules (SP-A and TLR4-MD2 proteins). The cells were pulsed with purified, native baboon lung SP-A and recombinant human TLR4-MD2 or MD2 proteins (RnD Systems, MN) for an hour prior to phagocytosis assay with pHrodo-conjugated, heat-killed E. coli K12 bioparticles (Invitrogen-Molecular Probes, CA). MD2 protein was also included, because SP-A is known to interact with MD2, and it was questioned if MD2 can influence the immune functions of DC-population. The assay was performed in serum-free Opti-MEM medium (Invitrogen, CA), as described by the manufacturer (Invitrogen-Molecular Probes, CA). The assay mixtures were incubated for another 3 hours at 37° C. in 5% CO2 incubator. The fluorescence readings were taken at 550 nm excitation and 600 nm emission wavelengths using SpectraMax M2 spectrofluorometer (Molecular Devices, CA).
Cytokine (TNF-α) measurement: The TNF-α levels were measured in cell-free supernatants by enzyme linked immunosorbent assay (ELISA) using a commercially available kit (eBioscience, CA), as per the manufacturer's instructions. Briefly, the microwells of a 96 well plate were coated with diluted purified anti-human TNF-α antibody. The wells were washed, and nonspecific sites were blocked. Diluted recombinant human TNF-α (7.8-500 pg/ml standard) and cell-free-supernatant (1:10) were added to the antibody-coated wells, and the plate was incubated overnight at 4° C. The next day, the plate was washed and incubated with biotin-conjugated anti-human TNF-α antibody followed by avidin-horseradish peroxidase and substrate solution. The reaction was stopped by adding 2 N H2SO4 and read at 450 nm (Molecular Devices, CA).

[4] = test system: primary adult baboon lung DCs and fetal baboon lung DC-precursor cells; test: Phagocytosis of pHrodo-labeled E. coli bioparticles by primary baboon lung DCs / fetal DC-precursor cells; type: cell-based
Experimental: Freshly collected lobe of the lung or whole lung samples of adult and fetal baboons were transported on ice in RPMI 1640 medium containing 2 mM glutamine, 1 mM HEPES, 10 μg/ml gentamicin, 100 U/ml penicillin, 100 μg/ml streptomycin and 10% FBS. After a mild mechanical disruption, the single cell suspension was seeded in a tissue culture flask (Nalge-Nunc International Corp, NY) at a density of 30-50×10^6 leukocytes/175 cm^2 flask in RPMI 1640 medium containing 2 mM glutamine, 1 mM HEPES, 10 μg/ml gentamicin, 100 U/ml penicillin, 100 μg/ml streptomycin and 10% FBS. The light-density DC-populations were harvested using OptiPrep cell-separation solution (density 1.32 g/ml, Accurate Chemicals, NY) (Awasthi and Cooper, 2006; Awasthi et al., 2009). The immunophenotype and basic characteristics of the lung DC-population isolated from fetal and adult baboons have been described earlier (Awasthi et al., 2009). Here, first the immunophenotype of KG-1-derived DCs and fetal baboon lung DC-precursors or adult baboon lung DCs were compared by flow cytometry. Briefly, cells were suspended in Dulbecco's phosphate buffered saline (DPBS) containing 1% FBS and 0.09% sodium azide and incubated with fluorochrome-conjugated antibodies to HLA-DP, DQ, DR, CD11c, CD40, CD80, CD86 (typical DC-markers) as described earlier.
After confirming that the fluorescence is of phagocytosed bioparticles, comprehensive experiments were performed in presence and absence of effector molecules (SP-A and TLR4-MD2 proteins). […] The fluorescence readings were taken at 550 nm excitation and 600 nm emission wavelengths using SpectraMax M2 spectrofluorometer (Molecular Devices, CA).
The phagocytosis index was calculated by subtracting the average fluorescence intensity of the reaction with bioparticles alone from the control (basal without any effector molecules) and experimental wells. Finally, the percent effect was calculated using the following formula: % effect=(Net experimental phagocytosis/Net basal phagocytosis)×100%

Row | Substance | cell cycle progression of SW480 cells [1] | binding to LPS [2] | secretion of TNF-α by DCs in response to E. coli ([3]; 3 hours phagocytosis reaction, protein added alone) | TLR4-MD2 protein-induced TNF-α release against E. coli ([3]; SP-A and TLR4-MD2 added together, 3 hours with E. coli) | phagocytic uptake of E. coli ([4]; SP-A 2 μM, TLR4-MD2 0.3 μM) | phagocytic uptake of E. coli when SP-A and TLR4-MD2 proteins were added together ([4]; uptake remained increased versus basal)
1 | GDFRYSDGTPVNYTNWYRGE [SPA4, GDFRYSDGT PVNYTNWYRGE] | did not affect | does not bind to LPS |  |  |  | 
2 | SP-A: native surfactant protein-A purified from bronchioalveolar lavage fluid of a normal healthy adult baboon (MWLCPLALTLTLMAASGAACEVKDVCVGSPGIPGTPGSHGLPGRDGRDGVKGDPGPP; listed as Papio cynocephalus) |  |  | did not induce the secretion of TNF-α | reduces | increased | no additive effect
